Assay results from patent US20020183365A1, “Method for treating fibrotic diseases or other indications IIIC” (priority 2000, published 2002).
Counter-ions that a name gives are not always drawn.

What was measured:
[1] = test system: TGFbeta; experiment: In situ hybridization studies, TGFbeta
Excerpt: (§1) Cardiovascular risk correlates more closely with the systolic and the pulse pressure than with the diastolic pressure. In diabetic patients, the cardiovascular risk profile of diabetic patients is strongly correlated to duration of diabetes, glycemic control and blood pressure. Structural matrix proteins contribute to the function of vessels and the heart, and changes in the physical behavior of cardiovascular walls are believed to be important determinants of circulatory function. In elderly individuals, the loss of compliance in the aorta leads to isolated systolic hypertension, which in turn expands the arterial wall and thereby diminishes the dynamic range of elasticity.

[2] = test system: elderly patients with pulse pressures greater than 60 mm Hg; experiment: Phase IIa clinical trial; type: in vivo, human
Excerpt: When the heart pumps blood into the vascular system, the ability of the arteries to expand helps to push blood through the body. When arteries become stiff, as they do in the natural process of aging, the ability of the arteries to expand is diminished and also has consequences for the heart. The heart has to work harder to pump the blood into the stiff arteries, and eventually hypertrophies (enlarges in size) to accomplish this. A hypertrophied heart is an inefficient pump, and is one of the disorders that leads to congestive heart failure. […] The potential clinical benefit of this is to lessen the effort that the heart must expend to push blood throughout the body. The effect is also believed to contribute to preventing hypertrophy and subsequent inefficiency of the heart, which inefficiency would contribute to congestive heart failure.
Atherosclerosis is a disease that involves deposition of blood lipids in plaque in the arteries throughout the body. In coronary arteries, accumulation of plaque progressively leads to reduced coronary flow, with occlusion of the arteries causing focal death of cardiac tissue (myocardial infarction, heart attack). If the amount of tissue that dies is large enough, death ensures. […] Reducing local deposits of plaque should eventually lessen the risk of myocardial infarction and death due to heart attacks.
Pulse pressure is the difference between systolic and diastolic blood pressure. In a young human, systolic pressure is typically 120 mm Hg and diastolic pressure is 80 mm Hg, resulting in a pulse pressure of 40 mm Hg. With age, in many individuals pulse pressure increases, largely due to the increase in systolic pressure that results from stiff vessel disease. In individuals with pulse pressure greater than 60 mm Hg there is an increased risk of death from cardiovascular morbidities. […] This decrease in pulse pressure was believed to be due primarily to the effect of the agent on lowering the systolic blood pressure.

[3] = test system: Rats; experiment: Rat myocardial infarct model (coronary artery ligation), histological examination of hearts; type: in vivo; settings: daily intraperitoneal 10 mg/kg for 30 days before and 14 days after ligation; placebo 0.16±0.04 g; p=0.04
Protocol: Rats received a daily intraperitoneal dose of 10 mg/kg 3-[2-phenyl-2-oxoethyl]-4,5-dimethyl-thiazolium salt (compound A) (n=14) or placebo (n=15) for 30 days. The animals then underwent a thoracotomy and the left anterior descending coronary artery ligated. The chest was then closed and the animals allowed to recover for 14 days while continuing to be treated with compound A or placebo. The animals were then sacrificed and the hearts removed for histological examination. The weight of the infarcted tissue was 0.16±0.04 g for the placebo treated animals compared to 0.11±0.05 g for the compound A treated animals (p=0.04).

[4] = test system: Type IV collagen; experiment: In situ hybridization studies, Type IV collagen
Excerpt: as §1

[5] = test system: collagen in cardiovascular tissues; experiment: Mass of collagen in cardiovascular tissues after treatment; settings: in vivo
Excerpt: as §1

[6] = test system: rodents, canines and primates; experiment: In vivo studies of vascular stiffening
Excerpt: as §1

[7] = test system: dog model for diabetes; experiment: Dog model for diabetes, ventricular elasticity; type: in vivo
Excerpt: as §1

[8] = series exploring certain imidazolium compounds; cited from earlier work

Structure (SMILES): Cc1sc[n+](CC(=O)c2ccccc2)c1C [compound A, 3-[2-phenyl-2-oxoethyl]-4,5-dimethyl-thiazolium salt]
- expression of TGFbeta [1]: reduces the expression
- stiffness of arteries, as measured by the ratio of stroke volume (ml) to pulse pressure (mm Hg) ([2]; Phase IIa clinical trial): showed an ability to reverse the stiffness of arteries
- amount of circulating triglycerides (lipids) ([2]; Phase IIa trial): increased the amount of circulating triglycerides
- pulse pressure ([2]; Phase IIa trial, elderly patients with pulse pressures greater than 60 mm Hg, statistically significant): reduced pulse pressure
- weight of the infarcted tissue [3]: 0.11 ± 0.05 g
- expression of Type IV collagen [4]: reduces the expression
- mass of collagen in cardiovascular tissues [5]: reduction in the mass of collagen
- vascular stiffening [6]: substantially ameliorating vascular stiffening
- end diastolic pressure, indicator of ventricular elasticity [7]: returned to a value at about the mid-point between the disease impaired value and the value for control dogs
- end diastolic volume, indicator of ventricular elasticity [7]: returned to a value at about the mid-point between the disease impaired value and the value for control dogs

Structure (SMILES): Cc1ccc(C(=O)C[n+]2ccccc2)cc1.[Cl-] [1-[2-(4-methylphenyl)-2-oxoethyl]-pyridinium chloride]
- glucose lowering effect [8]: inactive
